According to ChEMBL document CHEMBL1138957, “Discovery and SAR of 2-amino-5-(thioaryl)thiazoles as potent and selective Itk inhibitors” (Bioorg Med Chem Lett, 2006):

What was measured:
[1] = tested on: Jurkat; test: Inhibition of IL2 production in Jurkat T cells; assay type: functional, cell-based; details: Homo sapiens
[2] = biological target: T1, Tyrosine-protein kinase ITK/TSK (Homo sapiens, UniProt Q08881); test: Inhibition of Itk
T1 sequence (Q08881 whole entry): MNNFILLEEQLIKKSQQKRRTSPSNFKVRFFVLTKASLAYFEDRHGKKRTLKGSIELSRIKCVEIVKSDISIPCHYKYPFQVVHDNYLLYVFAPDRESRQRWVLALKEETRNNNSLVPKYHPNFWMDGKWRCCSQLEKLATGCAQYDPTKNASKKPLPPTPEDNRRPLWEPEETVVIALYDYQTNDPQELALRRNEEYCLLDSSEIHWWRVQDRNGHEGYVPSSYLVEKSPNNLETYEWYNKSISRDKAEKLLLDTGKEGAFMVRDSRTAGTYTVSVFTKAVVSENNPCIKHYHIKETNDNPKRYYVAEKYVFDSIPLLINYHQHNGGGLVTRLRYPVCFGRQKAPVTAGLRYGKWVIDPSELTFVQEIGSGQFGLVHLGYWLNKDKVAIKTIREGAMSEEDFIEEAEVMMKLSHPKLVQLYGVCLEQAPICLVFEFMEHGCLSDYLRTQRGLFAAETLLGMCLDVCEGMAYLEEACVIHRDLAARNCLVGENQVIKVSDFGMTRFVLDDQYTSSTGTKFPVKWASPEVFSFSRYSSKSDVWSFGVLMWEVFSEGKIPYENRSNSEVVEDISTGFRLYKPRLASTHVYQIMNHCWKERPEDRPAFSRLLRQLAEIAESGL

[3] = organism: Mus musculus; test: Stability in mouse liver microsomes assessed as degradation rate per mg of protein; assay type: ADME
[4] = tested on: Mus musculus; test: Inhibition of anti CD3-induced IL2 production in mice serum at 50 mg/kg, sc; assay type: functional; details: route subcutaneous
[5] = tested on: Mus musculus; test: Inhibition of anti CD3-induced IL2 production in mice serum at 50 mg/kg, sc after 1.75 hrs; assay type: functional; details: route subcutaneous
[6] = biological target: Tyrosine-protein kinase SYK (Homo sapiens, UniProt P43405); test: Inhibition of Syk
[7] = Tmax in mice at 20 mg/kg, po; assay type: ADME, organism-based; design: dose 20 mg/kg, route oral; details: mouse, in vivo
[8] = Oral bioavailability in mice at 20 mg/kg, po; assay type: ADME, organism-based; details: mouse, in vivo
[9] = Half life in mice at 10 mg/kg, iv; assay type: ADME, organism-based; design: dose 10 mg/kg, route intravenous; details: mouse, in vivo
[10] = Clearance in mice at 10 mg/kg, iv; assay type: ADME, organism-based; design: dose 10 mg/kg, route intravenous; details: mouse, in vivo
[11] = Mean residence time in mice at 10 mg/kg, iv; assay type: ADME, organism-based; design: dose 10 mg/kg, route intravenous; details: mouse, in vivo
[12] = Tmax in mice at 10 mg/kg, iv; assay type: ADME, organism-based; design: dose 10 mg/kg, route intravenous; details: mouse, in vivo
[13] = Volume of distribution in mice at 10 mg/kg, iv; assay type: ADME, organism-based; design: dose 10 mg/kg, route intravenous; details: mouse, in vivo, read-out: Vss
[14] = Half life in mice at 20 mg/kg, po; assay type: ADME, organism-based; design: dose 20 mg/kg, route oral; details: mouse, in vivo
[15] = Cmax in mice at 20 mg/kg, po; assay type: ADME, organism-based; design: dose 20 mg/kg, route oral; details: mouse, in vivo
[16] = Mean residence time in mice at 20 mg/kg, po; assay type: ADME, organism-based; design: dose 20 mg/kg, route oral; details: mouse, in vivo
[17] = biological target: Protein kinase C (PKC)
[18] = tested on: EL4; test: cells; details: Mus musculus

Compound | IC50 [1] [nM] | Stability ([3]; mouse) [nmol/min/mg] | also measured
CC(=O)N1CCN(C(=O)c2cccc(CSc3cnc(NC(=O)c4ccc(N(C)C)cc4)s3)c2)CC1 | 22000 |  | 
CC(=O)N1CCN(C(=O)c2cccc(Sc3cnc(NC(=O)c4ccc(N(C)C)cc4)s3)c2C)CC1 |  |  | IC50 [2]: > 25000 nM
COc1cc(C)c(Sc2cnc(NC(=O)C3CC3)s2)cc1C(=O)N1CCN(C(=O)CN(C)C)CC1 | 210 | 0.1 | 
COc1cc(C)c(Sc2cnc(NC(=O)c3ccc(CNC(C)C(C)(C)C)cc3)s2)cc1C(=O)N1CCN(C(C)=O)CC1 (stereo not drawn) |  |  | inhibition in vivo at 50 mg/kg [4]: 50%; Activity [5]: 1.89 µM; IC50 [6]: > 50000 nM; Tmax [7]: 1 h; bioavailability [8]: 6.4%; half-life [9]: 1.3 h; clearance [10]: 116 mL/min/kg; MRT [11]: 1 h; Tmax [12]: 3 min; Vd [13]: 7 L/kg; half-life [14]: 1.4 h; Cmax [15]: 69 nM; MRT [16]: 3.1 h; IC50 [17]: 24000 nM; IC50 [18]: 70 nM
CNCc1ccc(C(=O)Nc2ncc(Sc3cc(C(=O)N4CCOCC4)c(OC)cc3C)s2)[nH]1 | 260 | 0.1 | 
O=C(O)C1CCN(C(=O)c2cc(Sc3cnc(Nc4cccc(Br)n4)s3)ccc2O)CC1 | > 50000 | < 0.1 | 
CCN1CCN(C(=O)c2cc(Sc3cnc(NC(=O)C4CC4)s3)c(C)cc2OC)CC1 | 1000 | > 0.3 | 
CCNCc1ccc(C(=O)Nc2ncc(Sc3cc(C(=O)N4CCN(C(C)=O)CC4)c(OC)cc3C)s2)cc1 | 3400 |  | 
CC(=O)N1CCN(C(=O)c2cccc(Sc3cnc(Nc4cccnc4)s3)c2)CC1 |  |  | IC50 [2]: > 50000 nM
COCc1ccc(C(=O)Nc2ncc(Sc3cc(C(=O)N4CCN(C(C)=O)CC4)c(OC)cc3C)s2)cc1 | 420 |  | 
COc1cc(C)c(Sc2cnc(NC(=O)C3CC3)s2)cc1C(=O)N1CCN(C(C)=O)CC1 | 690 | > 0.3 | 
CC(=O)N1CCN(C(=O)c2cccc(Sc3cnc(Nc4ccccn4)s3)c2)CC1 | 24000 |  | 
COc1cc(C)c(Sc2cnc(NC(=O)c3ccc(N(C)C)cc3)s2)cc1C(=O)N1CCN(C(C)=O)CC1 | 280 |  | 
CC(=O)N1CCN(C(=O)c2cc(Sc3cnc(Nc4cc(C)cc(C)n4)s3)ccc2O)CC1 | 460 |  | 
O=C(O)C1CCCN(C(=O)c2cc(Sc3cnc(Nc4cccc(Br)n4)s3)ccc2O)C1 (stereo not drawn) | > 50000 | < 0.1 | 

Second part, led by results:

IC50 [1] [nM] | Stability ([3]; mouse) [nmol/min/mg] | Compound | also measured
2180 |  | CC(=O)N1CCN(C(=O)c2cc(Sc3cnc(Nc4ccccn4)s3)ccc2O)CC1 | 
230 |  | COc1cc(C)c(Sc2cnc(Nc3cc(C)cc(C)n3)s2)cc1C(=O)N1CCN(C(C)=O)CC1 | 
250 |  | COc1cc(C)c(Sc2cnc(NC(=O)c3ccc[nH]3)s2)cc1C(=O)N1CCN(C(C)=O)CC1 | 
370 | > 0.3 | CC(=O)N1CCN(C(=O)c2cc(Sc3cnc(Nc4cccc(Br)n4)s3)ccc2O)CC1 | 
> 10000 |  | CS(=O)(=O)NC(=O)C1CCCN(C(=O)c2cc(Sc3cnc(Nc4cccc(Br)n4)s3)ccc2O)C1 (stereo not drawn) | Stability [3]: < 0.1 nmol/min
25300 | < 0.1 | COc1cc(C)c(Sc2cnc(NC(=O)C3CC3C(=O)O)s2)cc1C(=O)N1CCN(C(C)=O)CC1 (stereo not drawn) | 
> 10000 | < 0.1 | CN(CC(=O)O)C(=O)c1cc(Sc2cnc(Nc3cccc(Br)n3)s2)ccc1O | 
360 |  | COc1cc(C)c(Sc2cnc(NC(=O)c3ccc(OC(C)C)cc3)s2)cc1C(=O)N1CCN(C(C)=O)CC1 | 
700 |  | CC(=O)N1CCN(C(=O)c2cc(CSc3cnc(NC(=O)c4ccc(CNC(C)C(C)(C)C)cc4)s3)cc(C)c2C)CC1 (stereo not drawn) | 
